Laboratory results reported in patent publication US5614539A, “Urea compounds which are useful as platelet aggregation inhibitors” (G. D. Searle & Co., priority 1995, dated 1997).

Tested on: Dog PRP (platelet aggregation)
Test: In-Vitro Platelet Aggregation in PRP (ADP-induced)
Assay type: cell-based
Conditions: Canis lupus familiaris; dog platelet-rich plasma; ADP 50 um final concentration; 1 minute preincubation at 37° C.; read-out: Dog PRP IC50 or % Inh.
Protocol: In-Vitro Platelet Aggregation in PRP
Healthy male or female dogs were fasted for 8 hours prior to drawing blood; then 30 ml whole blood was collected using a butterfly needle and 30 cc plastic syringe with 3 ml of 0.129M buffered sodium citrate (3.8%). The syringe was rotated carefully as blood was drawn to mix the citrate. Platelet-rich plasma (PRP) was prepared by centrifugation at 975×g for 3.17 minutes at room temperature allowing the centrifuge to coast to a stop without braking. The PRP was removed from the blood with a plastic pipette and placed in a plastic capped, 50 mL Corning conical sterile centrifuge tube which was held at room temperature. Platelet poor plasma (PPP) was prepared by centrifuging the remaining blood at 2000×g for 15 minutes at room temperature allowing the centrifuge to coast to a stop without braking. The PRP was adjusted with PPP to a count of 2-3×10^8 platelets per mL. 400 uL of the PRP preparation and 50 uL of the compounds solution to be tested or saline were preincubated for 1 minute at 37° C. in a […].). 50 uL of adenosine 5' diphosphate (ADP) (50 um final concentration) was added to the cuvettes and the aggregation was monitored for 1 minute. […] Results are calculated as follows: Percent of control=[(maximal OD minus initial OD of compound) divided by (maximal OD minus initial OD of control saline)]×100. […]

N=C(N)NCCCCCCCNC(=O)N[C@@H](CC(=O)O)C(=O)N[C@@H](Cc1ccccc1)C(=O)O [Example 4, N-[N-[[[[7-[[aminoiminomethyl]amino]heptyl]amino]carbonyl]amino]-L-α-aspartyl]-L-phenylalanine]
IC50: 1.9 µM

N=C(N)NCCCCCCCNC(=O)NC(CC(=O)O)c1cccnc1 (stereo not drawn) [Example 2, β-[[[[7-[[aminoiminomethyl]amino]heptyl]amino]carbonyl]amino]-3-pyridinepropanoic acid]
IC50: 0.8 µM
